# Activity calls are given as the source filed them. The rule behind the calls is not given here.
# Test system: rodent carcinogenicity bioassays, tumor incidence
# Assay: CCRIS carcinogenicity studies
# In short: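 NCI-built, expert-reviewed records of carcinogenicity and related test outcomes (mutagenicity, tumor promotion/inhibition) compiled from published and report sources, historical span 1985-2011, not updated.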
compound,measurement,setting,value
N=C1C=CC(=C(c2ccc(N)cc2)c2ccc(N)cc2)C=C1,carcinogen call,"Species: MOUSE, Strain/Sex: B6C3F1/FEMALE, Route: ORAL, Dose: 0, 500, 1000 PPM IN DIET FOR 103 WK (STUDY DURATION: 110-113 WK), Dose: 0, 500, 1000 PPM IN DIET FOR 103 WK (STUDY DURATION: 110-113 WK), Tumor Site: Type of Lesion: LUNG: ALVEOLAR/BRONCHIOLAR ADENOMA, ALVEOLAR/BRONCHIOLAR ADENOMA OR CARCINOMA;LIVER: HEPATOCELLULAR ADENOMA, HEPATOCELLU",active; positive
same,carcinogen call,"Species: MOUSE, Strain/Sex: B6C3F1/MALE, Route: ORAL, Dose: 0, 500, 1000 PPM IN DIET FOR 103 WK (STUDY DURATION: 113-115 WK), Dose: 0, 500, 1000 PPM IN DIET FOR 103 WK (STUDY DURATION: 113-115 WK), Tumor Site: Type of Lesion: LIVER: HEPATOCELLULAR CARCINOMA, HEPATOCELLULAR ADENOMA OR CARCINOMA",active; positive
same,carcinogen call,"Species: RAT, Strain/Sex: F344/FEMALE, Route: ORAL, Dose: 0, 500, 1000 PPM IN DIET FOR 103 WK (STUDY DURATION: 110-113 WK), Dose: 0, 500, 1000 PPM IN DIET FOR 103 WK (STUDY DURATION: 110-113 WK), Tumor Site: Type of Lesion: INTEGUMENTARY SYSTEM (SUBCUTANEOUS TISSUE): FIBROMA, FIBROMA OR FIBROSARCOMA, FIBROMA OR SARCOMA OR FIBROSARCOMA, MAMMAR",active; positive
same,carcinogen call,"Species: RAT, Strain/Sex: F344/MALE, Route: ORAL, Dose: 0, 1000, 2000 PPM IN DIET FOR 103 WK (STUDY DURATION: 110-113 WK), Dose: 0, 1000, 2000 PPM IN DIET FOR 103 WK (STUDY DURATION: 110-113 WK), Tumor Site: Type of Lesion: INTEGUMENTARY SYSTEM (SKIN): SQUAMOUS CELL CARCINOMA, SQUAMOUS CELL PAPILLOMA OR CARCINOMA, TRICHOEPITHELIOMA, SEBACEOUS",active; positive
same,carcinogen call,"Species: RAT, Strain/Sex: SPRAGUE-DAWLEY/FEMALE, Route: GAVAGE, Dose: 0, 300 MG/KG BW 2/WK FOR 18 WK WITH A 1 WK REST AFTER 12 WK THEN STARTING AT 19 WK 150 MG/KG BW 2/WK FOR DURATION OF STU",inactive; negative
same,carcinogen call,"Species: RAT, Strain/Sex: SPRAGUE-DAWLEY/MALE, Route: GAVAGE, Dose: 0, 300 MG/KG BW 2/WK FOR 18 WK WITH A 1 WK REST AFTER 12 WK THEN STARTING AT 19 WK 150 MG/KG BW 2/WK FOR DURATION OF STU",inactive; negative
O=C1C(c2[nH]c3ccc(S(=O)(=O)O)cc3c2O)=Nc2ccc(S(=O)(=O)O)cc21,carcinogen call,"Species: DOG, Strain/Sex: BEAGLE/MALE, FEMALE, Route: ORAL, Dose: 0, 1, 2% IN DIET FOR 2 YR, Dose: 0, 1, 2% IN DIET FOR 2 YR",inactive; negative
same,carcinogen call,"Species: MOUSE, Strain/Sex: C3H AND C57/MALE, FEMALE, Route: SUBCUTANEOUS, Dose: 0, 2.5 MG AS A 1% AQUEOUS SOLUTION 1/WK FOR 2 YR",inactive; negative
same,carcinogen call,"Species: MOUSE, Strain/Sex: CD-1/FEMALE, Route: ORAL, Dose: 0, 0.5, 1.5, 5% IN DIET FOR 23 MO (STUDY DURATION: 24 MO), Dose: 0, 0.5, 1.5, 5% IN DIET FOR 23 MO (STUDY DURATION: 24 MO)",inactive; negative
same,carcinogen call,"Species: MOUSE, Strain/Sex: CD-1/MALE, Route: ORAL, Dose: 0, 0.5, 1.5, 5% IN DIET FOR 22 MO (STUDY DURATION: 24 MO), Dose: 0, 0.5, 1.5, 5% IN DIET FOR 22 MO (STUDY DURATION: 24 MO)",inactive; negative
same,carcinogen call,"Species: RAT, Strain/Sex: OSBORNE-MENDEL/MALE, FEMALE, Route: ORAL, Dose: 0, 0.5, 1.0, 2.0, 5.0% IN DIET FOR 2 YR, Dose: 0, 0.5, 1.0, 2.0, 5.0% IN DIET FOR 2 YR",inactive; negative
same,carcinogen call,"Species: RAT, Strain/Sex: OSBORNE-MENDEL/MALE, FEMALE, Route: SUBCUTANEOUS, Dose: 0, 20 MG AS A 2% AQUEOUS SOLUTION 1/WK FOR 2 YR, Tumor Site: Type of Lesion: INJECTION SITE: FIBROSARCOMA",active; positive
same,carcinogen call,"Species: RAT, Strain/Sex: STRAIN-CD/FEMALE, Route: ORAL, Dose: 0, 0.5, 1, 2% IN DIET FOR 30 MO TO ANIMALS ALSO EXPOSED IN UTERO THROUGH THE SAME DOSES ADMINISTERED TO PARENTS BEGINNIN, Dose: 0, 0.5, 1, 2% IN DIET FOR 30 MO TO ANIMALS ALSO EXPOSED IN UTERO THROUGH THE SAME DOSES ADMINISTERED TO PARENTS BEGINNIN",inactive; negative
same,carcinogen call,"Species: RAT, Strain/Sex: STRAIN-CD/MALE, Route: ORAL, Dose: 0, 0.5, 1, 2% IN DIET FOR 29 MO TO ANIMALS ALSO EXPOSED IN UTERO THROUGH THE SAME DOSES ADMINISTERED TO PARENTS BEGINNIN, Dose: 0, 0.5, 1, 2% IN DIET FOR 29 MO TO ANIMALS ALSO EXPOSED IN UTERO THROUGH THE SAME DOSES ADMINISTERED TO PARENTS BEGINNIN",inactive; negative
Cc1ccccc1N=O,carcinogen call,"Species: RAT, Strain/Sex: F344/MALE, Route: ORAL, Dose: 3.38 G/KG- DIET FOR 72 WK (TOTAL DOSE 0.21 MOL/RAT), Tumor Site: Type of Lesion: LIVER: HEPATOMA, URINARY BLADDER: PAPILLOMA, PERITONEAL CAVITY: MESOTHELIOMA, SARCOMA, SPLEEN: FIBROMA, INTEGUMENTARY SY, Tumor Site: Type of Lesion: LIVER: HEPATOMA, URINARY BLADDER: PAPILLOMA, PERITONEAL CAVITY: MESOTHELIOMA, SARCOMA, SPLEEN: FIBROMA, INTEGUMENTARY SY",active; positive
C=CC(=O)OCCCC,carcinogen call,"Species: MOUSE, Strain/Sex: C3H/MALE, Route: DERMAL, Dose: 0, 0.2 MG IN 25 µL ACETONE 3/WK FOR LIFESPAN (STUDY DURATION: LIFESPAN)",inactive; negative
same,carcinogen call,"Species: RAT, Strain/Sex: SPRAGUE-DAWLEY/FEMALE, Route: INHALATION, Dose: 0, 15, 45, 135 PPM 6 HR/D 5 D/WK FOR 24 MO (STUDY DURATION: 130 WK), Dose: 0, 15, 45, 135 PPM 6 HR/D 5 D/WK FOR 24 MO (STUDY DURATION: 130 WK)",inactive; negative
same,carcinogen call,"Species: RAT, Strain/Sex: SPRAGUE-DAWLEY/MALE, Route: INHALATION, Dose: 0, 15, 45, 135 PPM 6 HR/D 5 D/WK FOR 24 MO (STUDY DURATION: 130 WK), Dose: 0, 15, 45, 135 PPM 6 HR/D 5 D/WK FOR 24 MO (STUDY DURATION: 130 WK)",inactive; negative
OB(O)O,carcinogen call,"Species: MOUSE, Strain/Sex: B6C3F1/FEMALE, Route: ORAL, Dose: 0, 2500, 5000 PPM IN DIET FOR 103 WK (STUDY DURATION: 105 WK), Dose: 0, 2500, 5000 PPM IN DIET FOR 103 WK (STUDY DURATION: 105 WK)",inactive; negative
same,carcinogen call,"Species: MOUSE, Strain/Sex: B6C3F1/MALE, Route: ORAL, Dose: 0, 2500, 5000 PPM IN DIET FOR 103 WK (STUDY DURATION: 105 WK), Dose: 0, 2500, 5000 PPM IN DIET FOR 103 WK (STUDY DURATION: 105 WK)",inactive; negative
Cc1cc(-c2ccccc2C)ccc1NO,carcinogen call,"Species: RAT, Strain/Sex: ACI/SEG/MALE, Route: INTRAPERITONEAL, Dose: 0, 50 UMOL/KG BW 2X/WK FOR 10 WK BEGINNING AT 3 D OF AGE (STUDY DURATION: 68 WK), Tumor Site: Type of Lesion: COLON: CARCINOMA",active; positive
same,carcinogen call,"Species: RAT, Strain/Sex: F344/MALE, Route: INTRAPERITONEAL, Dose: 0, 5, 10, 20 MG/KG 1/2 WK FOR 20 WK (STUDY DURATION: 60 WK), Dose: 0, 5, 10, 20 MG/KG 1/2 WK FOR 20 WK (STUDY DURATION: 60 WK), Tumor Site: Type of Lesion: PROSTATE: CARCINOMA, PERITONEUM: TUMOR, COLON: TUMOR, Tumor Site: Type of Lesion: PROSTATE: CARCINOMA, PERITONEUM: TUMOR, COLON: TUMOR",active; positive
Nc1ccc(-c2ccc(N)cc2)cc1,carcinogen call,"Species: DOG, Route: ORAL, Tumor Site: Type of Lesion: URINARY BLADDER",active; positive
same,carcinogen call,"Species: HAMSTER, Route: ORAL, Tumor Site: Type of Lesion: LIVER",active; positive
same,carcinogen call,"Species: HUMAN, Route: ORAL, INHALATION, DERMAL, Tumor Site: Type of Lesion: URINARY BLADDER",active; positive
same,carcinogen call,"Species: MOUSE, Route: SUBCUTANEOUS, Tumor Site: Type of Lesion: LIVER",active; positive
same,carcinogen call,"Species: RAT, Route: ORAL, Tumor Site: Type of Lesion: LIVER",active; positive
same,carcinogen call,"Species: RAT, Route: SUBCUTANEOUS, Tumor Site: Type of Lesion: LIVER, EAR (ZYMBAL GLAND), INJECTION SITE, Tumor Site: Type of Lesion: LIVER, EAR (ZYMBAL GLAND), INJECTION SITE",active; positive
same,carcinogen call,"Species: RAT, Strain/Sex: STRAIN-CD/FEMALE, Route: INTRAPERITONEAL, Dose: 0, 10, 30 UMOL/KG IN TRIOCTANOIN 2/WK FOR 4 WK (TOTAL DOSES: 13.5, 40.1 UMOL) (STUDY DURATION: 46 WK), Dose: 0, 10, 30 UMOL/KG IN TRIOCTANOIN 2/WK FOR 4 WK (TOTAL DOSES: 13.5, 40.1 UMOL) (STUDY DURATION: 46 WK), Tumor Site: Type of Lesion: MAMMARY GLAND: FIBROADENOMA, ADENOCARCINOMA, EAR (ZYMBAL GLAND): ADENOMA OR CARCINOMA",active; positive

# From PubChem BioAssay AID1259411 (Chemical Carcinogenesis Research Information System (CCRIS), 2018)
